For 26 compounds, EC50 results are on record in patent US12180226B2, “Spirotricycle RIPK1 inhibitors and methods of uses thereof” (Merck Sharp & Dohme LLC, priority 2021, dated 2024).

Structures can show the parent of a compound that is named as a salt. Some results are limits rather than exact numbers.

In the assay the target is RIPK1 (recombinant GST-RIPK1 kinase domain, residues 1-327) (Homo sapiens (Human), UniProt Q13546). Briefly: RIPK1-ADP-Glo Enzymatic Assay. To be noted: ADP-Glo; 25 nM GST-RIPK1, 300 μM ATP; assay lower limit ~25 nM; read-out: RIPK1 V0 Ec50. The assay is classed as biochemical. Put shortly: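 Inhibition of ADP formation was measured after compound and enzyme (25 nM) were pre-incubated for 30 minutes at ambient temperature and the kinase reaction ran for 150 minutes at 300 μM ATP with dephosphorylated MBP substrate. EC50 values come from ten-point curves fitted non-linearly.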
A general note: In ADP-Glo the light output rises with the ADP produced.

Sequence of RIPK1 (recombinant GST-RIPK1 kinase domain, residues 1-327) (Q13546 1-327): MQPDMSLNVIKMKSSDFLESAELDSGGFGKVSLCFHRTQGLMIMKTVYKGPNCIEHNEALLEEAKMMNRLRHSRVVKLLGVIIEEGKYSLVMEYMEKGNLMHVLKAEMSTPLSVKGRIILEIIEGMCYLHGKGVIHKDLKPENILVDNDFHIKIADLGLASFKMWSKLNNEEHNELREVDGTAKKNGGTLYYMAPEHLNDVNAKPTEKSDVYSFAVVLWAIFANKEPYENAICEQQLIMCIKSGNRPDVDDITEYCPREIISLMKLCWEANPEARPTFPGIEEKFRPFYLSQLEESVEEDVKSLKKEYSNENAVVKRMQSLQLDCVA

Broadly, the EC50 is the concentration giving half of the maximal effect. Turning to `N#Cc1ccc(N2CC3(C2)O[C@@H]2CC[C@@H](c4ccccc4)N2C3=O)n2ncnc12` [Example 13.23, 5-((5′S,′7a′R)-3′-oxo-5′-phenyltetrahydro-3′H-spiro[azetidine-3,2′-pyrrolo[2,1-b]oxazol]-1-yl)-[1,2,4]triazolo[1,5-a]pyridine-8-carbonitrile, TFA salt], the concentration giving a half-maximal response (EC50) is 54.3 nM.

`O=C(c1cnc2cccnn12)N1CCC2(CC1)O[C@@H]1CC[C@@H](c3cc(F)cc(F)c3)N1C2=O` [Example 6.16, (5′S,7a′R)-5′-(3,5-difluorophenyl)-1-(imidazo[1,2-b]-pyridazine-3-carbon-yl)tetrahydro-3′H-spiro[piperidine-4,2′-pyrrolo[2,1-b][1,3]oxazol]-3′-one]: the EC50 amounted to 276 nM.

Take `Cc1ncc([C@@H]2CC[C@H]3OC4(CCN(C(=O)c5ccccc5)CC4)C(=O)N32)cc1F` [Example 2.1, (5′S,7a′R)-1-benzoyl-5′-(5-fluoro-6-methylpyridin-3-yl)tetrahydro-3′H-spiro[piperidine-4,2′-pyrrolo[2,1-b]oxazol]-3′-one, TFA salt.]: the EC50 came out at 76.5 nM.

Turning to `O=C1N2[C@H](OC13CCN(c1ccnc4c(F)cnn14)CC3)[C@@H](O)C[C@H]2c1ccccc1` [Example 4.271, (5′S,7′S,7a′R)-1-(3-fluoropyrazolo[1,5-a]pyrimidin-7-yl)-7′-hydroxy-5′-phenyltetrahydro-3′H-spiro[piperidine-4,2′-pyrrolo[2,1-b] [1,3]oxazol]-3′-one], the concentration giving a half-maximal response (EC50) is less than 25 nM.

As to `NC(=O)c1ccc(N2CCC3(CC2)O[C@@H]2CC[C@@H](c4ccccc4)N2C3=O)nc1` [Example 4.199, 6-[(5′S,7a′R)-3′-oxo-5′-phenyltetrahydro-1H,3′H-spiro[piperidine-4,2′-pyrrolo[2,1-b] [1,3]oxazol]-1-yl]pyridine-3-carboxamide], the EC50 was 36.2 nM.

For `CC1CC2(CCN1c1ccnc3ccnn13)O[C@@H]1CC[C@@H](c3ccccc3)N1C2=O` (stereo partly drawn) [Example 4.247, (4R,5′S,7a′R)-2-methyl-5′-phenyl-1-(pyrazolo[1,5-a]pyrimidin-7-yl)tetrahydro-3′H-spiro[piperidine-4,2′-pyrrolo[2,1-b] [1,3]oxazol]-3′-one], the EC50 was found to be 86.5 nM.

With `Cc1nc(C(=O)N2CCC3(CC2)O[C@@H]2CC[C@@H](c4cccc(F)c4)N2C3=O)c(C)o1` [Example 6.126, (5′S,7a′R)-1-(2,5-dimethyl-1,3-oxazole-4-carbonyl)-5′-(3-fluorophenyl)tetra-hydro-3′H-spiro[piperi-dine-4,2′-pyrrolo[2,1-b][1,3]oxazol]-3′-one], the EC50 was determined as 619 nM.

Take `O=C1N2[C@@H](CC[C@H]2c2ccccc2)OC12CCN(c1ccc(-c3ncco3)c3ncnn13)CC2` [Example 4.180, (5′S,7a′R)-1-[8-(1,3-oxazol-2-yl)[1,2,4]triazolo[1,5-a]pyridin-5-yl]-5′-phenyltetrahydro-3′H-spiro[piperidine-4,2′-pyrrolo[2,1-b] [1,3]oxazol]-3′-one]: the concentration giving a half-maximal response (EC50) was less than 25 nM.

Take `CC1CC2(CCN1C(=O)c1ccccc1)O[C@@H]1CC[C@@H](c3cc(F)cc(F)c3)N1C2=O` (stereo partly drawn) [Example 6.107, (4R,5′S,7a′R)-1-(benzenecarbonyl)-5′-(3,5-difluorophenyl)-2-methyltetrahydro-3′H-spiro[piperidine-4,2′-pyrrolo[2,1-b] [1,3]oxazol]-3′-one]: the EC50 is less than 25 nM.

With `Cn1cccc1C(=O)N1CCC2(CC1)O[C@@H]1CC[C@@H](c3cc(F)cc(F)c3)N1C2=O` [Example 5.48, (5′S,7a′R)-5′-(3,5-difluoro-phenyl)-1-(1-methyl-1H-pyrrole-2-carbonyl)tetra-hydro-3′H-spiro[piperidine-4,2′-pyrrolo[2,1-b]oxazol]-3′-one], the EC50 stood at 42.2 nM.

For `O=C(c1cnnn1-c1cccnc1)N1CCC2(CC1)O[C@@H]1CC[C@@H](c3cc(F)cc(F)c3)N1C2=O` [Example 6.30, (5′S,7a′R)-5′-(3,5-difluorophenyl)-1-[1-(pyridin-3-yl)-1H-1,2,3-triazole-5-car-bonyl]tetrahydro-3′H-spiro[piperidine-4,2′-pyrrolo[2,1-b][1,3]oxazol]-3′-one], the EC50 was 208 nM.

Take `Cc1ncc([C@@H]2CC[C@H]3OC4(CCN(c5ccnc6ccnn56)CC4)C(=O)N32)cc1F` [Example 4.89, (5′S,7a′R)-5′-(5-fluoro-6-methylpyridin-3-yl)-1-(pyrazolo[1,5-a]pyrimidin-7-yl)tetrahydro-3′H-spiro[piperidine-4,2′-pyrrolo[2,1-b]oxazol]-3′-one]: the EC50 was 29.4 nM.

On to `O=C1N2[C@@H](CC[C@H]2c2ccccc2)OC12CCN(c1ccc(C3CC3)cn1)CC2` [Example 11.19, (5′S,7a′R)-1-(5-cyclopropylpyridin-2-yl)-5′-phenyltetrahydro-3′H-spiro[piperidine-4,2′-pyrrolo[2,1-b][1,3]oxazol]-3′-one], for which the EC50 was 624 nM.

Regarding `O=C(c1ccc(Cl)cc1F)N1CCC2(CC1)O[C@@H]1CC[C@@H](c3cc(F)cc(F)c3)N1C2=O` [Example 5.59, (5′S,7a′R)-1-(4-chloro-2-fluorobenzoyl)-5′-(3,5-difluorophenyl)tetrahydro-3′H-spiro[piperidine-4,2′-pyrrolo[2,1-b]oxazol]-3′-one], the EC50 was less than 25 nM.

Consider `O=C1N2[C@@H](CC[C@H]2c2cc(F)cc(F)c2)OC12CCN(c1cncc3nccn13)CC2` [Example 13.8, (5′S,7a′R)-5′-(3,5-difluorophenyl)-1-(imidazo[1,2-a]pyrazin-5-yl)tetrahydro-3′H-spiro[piperidine-4,2′-pyrrolo[2,1-b]oxazol]-3′-one, TFA salt], for which the EC50 amounted to 664 nM.

As for `O=C(c1c(F)cc(F)cc1F)N1CCC2(CC1)O[C@@H]1CC[C@@H](c3ccccc3)N1C2=O` [Example 5.8, (5′S,7a′R)-5′-phenyl-1-(2,4,6-trifluorobenzene-1-carbonyl)tetrahydro-3′H-spiro[piperidine-4,2′-pyrrolo[2,1-b][1,3]oxazol]-3′-one], the EC50 was less than 25 nM.

With `COc1ccc(N2CCC3(CC2)O[C@@H]2CC[C@@H](c4ccccc4)N2C3=O)nc1OC` [Example 11.31, (5′S,7a′R)-1-(5,6-dimethoxypyridin-2-yl)-5′-phenyltetrahydro-3′H-spiro[piperidine-4,2′-pyrrolo[2,1-b][1,3]oxazol]-3′-one], the EC50 is less than 25 nM.

As for `O=C(c1cccc(N2CCOCC2)c1)N1CCC2(CC1)O[C@@H]1CC[C@@H](c3cc(F)cc(F)c3)N1C2=O` [Example 6.47, (5′S,7a′R)-5′-(3,5-difluorophenyl)-1-[3-(morpholin-4-yl)-benzene-1-carbonyl]-tetrahydro-3′H-spiro [piperidine-4,2′-pyrrolo[2,1-b][1,3]oxazol]-3′-one], the concentration giving a half-maximal response (EC50) is less than 25 nM.

As for `O=C1N2[C@@H](CC[C@H]2C2CCCCC2)OC12CCN(c1ccnc3c(F)cnn13)CC2` [Example 4.87, (5′S,7a′R)-5′-cyclohexyl-1-(3-fluoropyrazolo [1,5-a]pyrimidin-7-yl)tetrahydro-3′H-spiro[piperidine-4,2′-pyrrolo[2,1-b]oxazol]-3′-one, TFA salt], the EC50 is less than 25 nM.

Take `C#Cc1cnc(N2CCC3(CC2)O[C@@H]2CC[C@@H](c4ccccc4)N2C3=O)n2ncnc12` [Example 21.23, (5′S,7a′R)-1-(8-ethynyl[1,2,4]triazolo [1,5-c]pyrimidin-5-yl)-5′-phenyltetrahydro-3′H-spiro[piperidine-4,2′-pyrrolo[2,1-b][1,3]oxazol]-3′-one]: the EC50 was less than 25 nM.

As for `N#Cc1ccc(C(=O)N2CCC3(CC2)O[C@@H]2CC[C@@H](c4cc(F)cc(F)c4)N2C3=O)cc1` [Example 5.21, 4-((5′S,7a′R)-5′-(3,5-difluorophenyl)-3′-oxo-tetrahydro-3′H-spiro [piperidine-4,2′-pyrrolo-[2,1-b]oxazole]-1-carbon-yl)benzonitrile], the EC50 worked out at 342 nM.

On to `Cc1ccc(C(=O)N2CCC3(CC2)O[C@@H]2CC[C@@H](c4cc(F)cc(F)c4)N2C3=O)cn1` [Example 6.69, (5′S,7a′R)-5′-(3,5-difluorophenyl)-1-(6-methylpyridine-3-carbonyl)tetrahydro-3′H-spiro[piperidine-4,2′-pyrrolo[2,1-b] [1,3]oxazol]-3′-one], for which the EC50 stood at 46.8 nM.

With `O=C1N2[C@@H](CC[C@H]2c2ccccc2)OC12CCN(c1ccc(=O)n(CC3CC3)n1)CC2` [Example 11.8, (5′S,7a′R)-1-[1-(cyclopropylmethyl)-6-oxo-1,6-dihydropyridazin-3-yl]-5′-phenyltetrahydro-3′H-spiro[piperidine-4,2′-pyrrolo[2,1-b][1,3]oxazol]-3′-one], the EC50 was determined as 215 nM.

Consider `O=C1N2[C@H](OC13CCN(c1ccnc4c(F)cnn14)CC3)[C@H](O)C[C@H]2c1ccccc1` [Example 4.149, (5′S,7′R,7a′R)-1-(3-fluoropyrazolo[1,5-a]pyrimidin-7-yl)-7′-hydroxy-5′-phenyltetrahydro-3′H-spiro[piperidine-4,2′-pyrrolo[2,1-b] [1,3]oxazol]-3′-one], for which the EC50 was less than 25 nM.

As to `N#Cc1ccnc(N2CCC3(CC2)O[C@@H]2CC[C@@H](c4cc(F)cc(F)c4)N2C3=O)n1` [Example 4.12, 2-[(5′S,7a′R)-5′-(3,5-difluorophenyl)-3′-oxotetrahydro-1H,3′H-spiro[piperidine-4,2′-pyrrolo[2,1-b] [1,3]oxazol]-1-yl]pyrimidine-4-carbonitrile], the EC50 was less than 25 nM.

Turning to `O=C(c1ccccc1)N1CCC2(CC1)O[C@@H]1CC[C@@H](c3ccc(F)cn3)N1C2=O` [Example 17.6, (5′S,7a′R)-1-benzoyl-5′-(5-fluoropyridin-2-yl)tetrahydro-3′H-spiro[piperidine-4,2′-pyrrolo[2,1-b]oxazol]-40′-one, TFA salt], the half-maximal effective concentration (EC50) stood at 94.4 nM.
